According to ChEMBL document CHEMBL3045765, “Quantitative structure-fungitoxicity relationships of some monohydric alcohols” (J Agric Food Chem, 2003):

Assays:
[1] = test system: Colletotrichum gloeosporioides; test: Fungitoxicity against Colletotrichum gloeosporioides assessed as mycelial growth inhibition by poisoned food technique; format: functional, organism-based; conditions: for minimal effective concentration: read-out: MEC
[2] = test system: Colletotrichum gloeosporioides; test: Fungitoxicity against Colletotrichum gloeosporioides assessed as mycelial growth inhibition at 1200 mg/L by poisoned food technique; format: functional; conditions: read-out: GI

Structure (SMILES) | EC50 ([1]; read-out: EC50) | EC50 ([1]; read-out: pEC50 (converted)) | minimal effective concentration [1] | inhibition of growth at 1200 µg/mL [2]
C=C[C@H](O)CCCCC | 1290 µg/mL | 10 mM |  | 
CCCCCCCO [1-HEPTANOL] | 546 µg/mL | 4.68 mM | 182 µg/mL | 
CCCCCCO [1-HEXANOL] | 1270 µg/mL | 12 mM | 772 µg/mL | 
CCCCCO [1-PENTANOL] | 2130 µg/mL | 24 mM | 712 µg/mL | 
CC(C)CCO [3-METHYLBUTANOL] | 3710 µg/mL | 41.7 mM |  | 
CC(C)[C@@H]1CC[C@@H](C)C[C@@H]1O [(+) NEOMENTHOL] | 488 µg/mL | 3.09 mM |  | 
CCO [ALCOHOL] | 17700 µg/mL |  | 5490 µg/mL | 
OCc1ccccc1 [BENZYL ALCOHOL] | 1180 µg/mL | 11 mM |  | 
CCCCO [BUTYL ALCOHOL] | 3690 µg/mL | 50.1 mM | 910 µg/mL | 
CCCCCCCCCCCCCCCCCCO [CETOSTEARYL ALCOHOL] | > 225 µg/mL | > 1.26 mM | > 225 µg/mL | 
CCCCCCCCCCCCCCCCO [CETYL ALCOHOL] | > 1200 µg/mL | > 5.25 mM |  | 5%
CC(C)=CCCC(C)CCO (stereo unspecified) [CITRONELLOL] | 84 µg/mL | 0.537 mM |  | 
CCCCCCCCCCO [DECANOL] | 112 µg/mL | 0.708 mM | 52 µg/mL | 
CC(C)=CCC/C(C)=C/CO [GERANIOL] | 100 µg/mL | 0.646 mM |  | 
CC(C)CO [ISOBUTANOL] | 8200 µg/mL |  |  | 
CC(C)O [ISOPROPYL ALCOHOL] | 18200 µg/mL |  |  | 
C=CC(C)(O)CCC=C(C)C (stereo unspecified) [LINALOOL] | 1090 µg/mL | 7.08 mM |  | 
CC1CCC(C(C)C)C(O)C1 (stereo unspecified) [MENTHOL] | 452 µg/mL | 2.88 mM |  | 
CO [METHYL ALCOHOL] | 24700 µg/mL |  | 8000 µg/mL | 
CCCCCCCCO [OCTANOL] | 298 µg/mL | 2.29 mM | 87 µg/mL | 
OCCc1ccccc1 [PHENYLETHYL ALCOHOL] | 1000 µg/mL | 8.13 mM |  | 
CCCO [PROPANOL] | 8980 µg/mL |  | 4430 µg/mL | 
CC(C)(C)O [TERT-BUTANOL] | 17100 µg/mL |  |  | 
